pEC50: −log10 of the molar value.
What was measured:
RORγ-LBD = molecular target: T1, RORγ-LBD (Homo sapiens, UniProt P51449); assay: RORγ-Ligand Binding Domain (LBD) TR-FRET Assay; type: biochemical; conditions: for TR-FRET Assay Max Response: maximum response;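 as to TR-FRET Assay Max Response: 665/615 nm signal ratio set to 100 without ursolic acid or test compound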
T1 construct: made in house; host or cells: SF9 cells (baculovirus); used as diluted lysate
T1 sequence (P51449 269-508 limits assumed): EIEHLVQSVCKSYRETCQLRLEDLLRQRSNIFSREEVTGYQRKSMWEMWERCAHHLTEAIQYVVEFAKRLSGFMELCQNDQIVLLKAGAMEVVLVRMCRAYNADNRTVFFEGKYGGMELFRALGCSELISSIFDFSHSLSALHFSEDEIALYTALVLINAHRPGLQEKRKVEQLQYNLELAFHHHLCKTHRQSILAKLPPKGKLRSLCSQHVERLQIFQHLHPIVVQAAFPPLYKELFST
How it was run: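 His-tagged RORγ-LBD from SF9 baculovirus lysate, ~3 nM final, in 50 mM Tris pH 7.0, 50 mM KCl, 1 mM EDTA, 0.1 mM DTT, 0.01% BSA. Biotinylated SRC1 LXXLL peptide at 200 nM final with 2 μM ursolic acid; TR-FRET read-out, 1% DMSO final.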

Gal4-RORγ-LBD = molecular target: T2, Gal4-RORγ-LBD (Homo sapiens, UniProt P51449); assay: Gal4-RORγ Luciferase Reporter Assay in HEK-293T Cells; type: cell-based; conditions: HEK-293 cells; for Gal4-RORγ Assay Max Response: maximum response
T2 construct: expressed in transfected cells
T2 sequence (P51449 269-508 limits assumed): T1 sequence (P51449 269-508 limits assumed)
How it was run: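 HEK-293 cells were co-transfected with Gal4-RORγ-LBD and a Gal4-luciferase reporter, then exposed overnight at 37 °C to compounds with […] ursolic acid present (0.2% DMSO). Luminescence was read with One-Glo after 10 min at RT, untreated signal was set as 100, and Max Response was taken as the upper plateau of a 4-parameter logistic fit.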

[1] = luciferase reporter, with ursolic acid
[2] = with 2 μM ursolic acid (RORγ antagonist), highest test concentration 10 μM
[3] = ursolic acid present, luciferase readout
[4] = luciferase reporter, in presence of ursolic acid

Row | Compound | pEC50 (RORγ-LBD; RORγ-LBD TR-FRET) | pEC50 (Gal4-RORγ-LBD; [1]) | other results
1 | CCc1ccccc1/C=C/c1ccc2c(c1)N(S(=O)(=O)c1cccc(OC(F)F)c1)C[C@H](CCC(=O)OC)O2 [Example 89AX, (S,E)-methyl 3-(4-((3-(difluoromethoxy)phenyl)sulfonyl)-6-(2-ethylstyryl)-3,4-dihydro-2H-benzo[b][1,4]oxazin-2-yl)propanoate] | > 6.30 | 5.30 to 6.30 | 
2 | CCOc1nn(CC)cc1S(=O)(=O)N1C[C@H](CCC(=O)O)Oc2ccc(/C=C/c3c(Cl)cccc3C(F)(F)F)cc21 [Example 89DO, (S,E)-3-(6-(2-chloro-6-(trifluoromethyl)styryl)-4-((3-ethoxy-1-ethyl-1H-pyrazol-4-yl)sulfonyl)-3,4-dihydro-2H-benzo[b][1,4]oxazin-2-yl)propanoic acid] | > 6.30 | > 6.30 | 
3 | CCOc1nn(CC)cc1S(=O)(=O)N1C[C@H](CCC(=O)OC)Oc2ccc(/C=C/c3nccnc3Cl)cc21 [Example 89N, (S,E)-methyl 3-(6-(2-(3-chloropyrazin-2-yl)vinyl)-4-((3-ethoxy-1-ethyl-1H-pyrazol-4-yl)sulfonyl)-3,4-dihydro-2H-benzo[b][1,4]oxazin-2-yl)propanoate] | 5.00 to 5.30 | < 5.00 | 
4 | C/C(=C\c1ccc2c(c1)N(S(=O)(=O)c1cccc(C(F)(F)F)c1)CC(C(=O)O)C2)c1c(F)cccc1Cl (stereo not shown) |  |  | pEC50 (RORγ-LBD; [2]): > 6.30; pEC50 (Gal4-RORγ-LBD; [3]): 5.30 to 6.30
5 | O=C(O)C1Cc2ccc(OCc3c(F)cccc3Cl)cc2N(S(=O)(=O)c2cccc(C(F)(F)F)c2)C1 (stereo not shown) |  |  | pEC50 (RORγ-LBD; [2]): > 6.30; pEC50 (Gal4-RORγ-LBD; [3]): 5.30 to 6.30
6 | Cc1ccc(F)c(/C=C/c2ccc3c(c2)N(S(=O)(=O)c2cccc(C(F)(F)F)c2)C[C@H](CCC(=O)O)O3)n1 [Example 89CG, (S,E)-3-(6-(2-(3-fluoro-6-methylpyridin-2-yl)vinyl)-4-((3-(trifluoromethyl)phenyl)sulfonyl)-3,4-dihydro-2H-benzo[b][1,4]-oxazin-2-yl)propanoic acid] | > 6.30 | 5.00 to 5.30 | 
7 | CCOc1ncc(C(F)(F)F)cc1S(=O)(=O)N1C[C@H](CCC(=O)O)Oc2ccc(/C=C/c3c(Cl)cccc3C(F)(F)F)cc21 [Example 89DM, (S,E)-3-(6-(2-chloro-6-(trifluoromethyl)styryl)-4-((2-ethoxy-5-(trifluoromethyl)-pyridin-3-yl)sulfonyl)-3,4-dihydro-2H-benzo[b][1,4]-oxazin-2-yl)propanoic acid] | > 6.30 | > 6.30 | 
8 | C/C(=C\c1ccc2c(c1)C(S(=O)(=O)c1cccc(C(F)(F)F)c1)CC(CNC(=O)C1CC1)O2)c1c(F)cccc1Cl (stereo not shown) [Example 183, (E)-N-((6-(2-(2-Chloro-6-fluorophenyl)prop-1-en-1-yl)-4-((3-(trifluoromethyl)phenyl)sulfonyl)chroman-2-yl)methyl)cyclopropanecarboxamide] |  |  | pEC50 (RORγ-LBD; RORγ-LBD TR-FRET assay): > 6.30; TR-FRET Assay Max Response (RORγ-LBD; RORγ-LBD TR-FRET assay): *** (a value in the range of greater than 150 to 200); pEC50 (Gal4-RORγ-LBD; [4]): 5.30 to 6.30; Gal4-RORγ Assay Max Response (Gal4-RORγ-LBD; [4]): ** (a value in the range of greater than 90 to 150)
9 | CCOc1nn(CC)cc1S(=O)(=O)N1C[C@H](CCC(=O)OC)Oc2ccc(/C=C/c3nccs3)cc21 [Example 89R, (S,E)-methyl 3-(4-((3-ethoxy-1-ethyl-1H-pyrazol-4-yl)sulfonyl)-6-(2-(thiazol-2-yl)vinyl)-3,4-dihydro-2H-benzo[b][1,4]oxazin-2-yl)propanoate] | 5.00 to 5.30 | < 5.00 | 
10 | COc1cc(S(=O)(=O)C2CC(CCC(=O)O)Oc3ccc(/C=C(\C)c4c(F)cccc4Cl)cc32)ccc1F (stereo not shown) [Example 186G, (E)-3-(6-(2-(2-chloro-6-fluorophenyl)prop-1-en-1-yl)-4-((4-fluoro-3-methoxyphenyl)-sulfonyl)chroman-2-yl)propanoic acid] |  |  | pEC50 (RORγ-LBD; RORγ-LBD TR-FRET assay): > 6.30; TR-FRET Assay Max Response (RORγ-LBD; RORγ-LBD TR-FRET assay): ** (a value in the range of greater than 90 to 150); pEC50 (Gal4-RORγ-LBD; [4]): 5.30 to 6.30; Gal4-RORγ Assay Max Response (Gal4-RORγ-LBD; [4]): ** (a value in the range of greater than 90 to 150)
11 | C/C(=C\c1ccc2c(c1)C(S(=O)(=O)c1cccc(C(F)(F)F)c1)CC(CNS(C)(=O)=O)O2)c1c(F)cccc1Cl (stereo not shown) [Example 184, (E)-N-((6-(2-(2-Chloro-6-fluorophenyl)prop-1-en-1-yl)-4-((3-(trifluoromethyl)phenyl)sulfonyl)chroman-2-yl)methyl)methanesulfonamide] |  |  | pEC50 (RORγ-LBD; RORγ-LBD TR-FRET assay): > 6.30; TR-FRET Assay Max Response (RORγ-LBD; RORγ-LBD TR-FRET assay): *** (a value in the range of greater than 150 to 200); pEC50 (Gal4-RORγ-LBD; [4]): > 6.30; Gal4-RORγ Assay Max Response (Gal4-RORγ-LBD; [4]): ** (a value in the range of greater than 90 to 150)
12 | CC(=O)NC[C@H]1CN(S(=O)(=O)c2cccc(C(F)(F)F)c2)c2cc(/C=C(\C)c3c(F)cccc3Cl)ccc2O1 [Example 109C, (S,E)-N-((6-(2-(2-chloro-6-fluorophenyl)prop-1-en-1-yl)-4-((3-(trifluoromethyl)phenyl)-sulfonyl)-3,4-dihydro-2H-benzo[b][1,4]oxazin-2-yl)methyl)acetamide] |  |  | pEC50 (RORγ-LBD; RORγ-LBD TR-FRET assay): > 6.30; TR-FRET Assay Max Response (RORγ-LBD; RORγ-LBD TR-FRET assay): ** (a value in the range of greater than 90 to 150); pEC50 (Gal4-RORγ-LBD; [4]): > 6.30; Gal4-RORγ Assay Max Response (Gal4-RORγ-LBD; [4]): ** (a value in the range of greater than 90 to 150)
13 | C/C(=C\c1ccc2c(c1)N(S(=O)(=O)c1cccc(C(F)(F)F)c1)[C@H](C)[C@H](O)C2)c1c(F)cccc1Cl (racemic) [Example 171, (2R,3R)-7-((E)-2-(2-Chloro-6-fluorophenyl)prop-1-en-1-yl)-2-methyl-1-((3-(trifluoromethyl)phenyl)sulfonyl)-1,2,3,4-tetrahydroquinolin-3-ol] |  |  | pEC50 (RORγ-LBD; RORγ-LBD TR-FRET assay): > 6.30; TR-FRET Assay Max Response (RORγ-LBD; RORγ-LBD TR-FRET assay): *** (a value in the range of greater than 150 to 200); pEC50 (Gal4-RORγ-LBD; [4]): 5.30 to 6.30; Gal4-RORγ Assay Max Response (Gal4-RORγ-LBD; [4]): ** (a value in the range of greater than 90 to 150)
14 | O=C(O)CC[C@H]1CN(S(=O)(=O)c2cc(C(F)(F)F)cnc2OCCO)c2cc(C=C3CCOCC3)ccc2O1 [Example 95O, (S)-3-(4-((2-(2-hydroxyethoxy)-5-(trifluoromethyl)pyridin-3-yl)sulfonyl)-6-((tetrahydro-4H-pyran-4-ylidene)methyl)-3,4-dihydro-2H-benzo[b][1,4]oxazin-2-yl)propanoic acid] | > 6.30 | 5.30 to 6.30 | 
15 | CCOc1nn(CC)cc1S(=O)(=O)N1C[C@H](CCC(=O)OC)Oc2ccc(/C=C/c3cccnc3)cc21 [Example 89J, (S,E)-methyl 3-(4-((3-ethoxy-1-ethyl-1H-pyrazol-4-yl)sulfonyl)-6-(2-(pyridin-3-yl)vinyl)-3,4-dihydro-2H-benzo[b][1,4]oxazin-2-yl)propanoate] | 5.30 to 6.30 | < 5.00 | 
16 | CCOc1ncc(Cl)cc1S(=O)(=O)N1C[C@H](CCC(=O)O)Oc2ccc(/C=C/c3c(Cl)cccc3C(F)(F)F)cc21 [Example 89CZ, (S,E)-3-(4-((5-chloro-2-ethoxypyridin-3-yl)sulfonyl)-6-(2-chloro-6-(trifluoromethyl)-styryl)-3,4-dihydro-2H-benzo-[b][1,4]oxazin-2-yl)propanoic acid] | > 6.30 | 5.30 to 6.30 | 
17 | COc1cccnc1/C=C/c1ccc2c(c1)N(S(=O)(=O)c1cccc(C(F)(F)F)c1)C[C@H](CCC(=O)O)O2 [Example 89DK, (S,E)-3-(6-(2-(3-methoxypyridin-2-yl)vinyl)-4-((3-(trifluoromethyl)phenyl)-sulfonyl)-3,4-dihydro-2H-benzo[b][1,4]oxazin-2-yl)propanoic acid] | > 6.30 | 5.30 to 6.30 | 
18 | CCOc1ncc(C(F)(F)F)cc1S(=O)(=O)N1C[C@H](CCC(=O)OC)Oc2ccc(/C=C/c3c(Cl)cccc3C(C)(F)F)cc21 [Example 89FH, methyl (S,E)-3-(6-(2-chloro-6-(1,1-difluoroethyl)styryl)-4-((2-ethoxy-5-(trifluoromethyl)-pyridin-3-yl)sulfonyl)-3,4-dihydro-2H-benzo[b][1,4]-oxazin-2-yl)propanoate] | > 6.30 | > 6.30 | 
19 | COC(=O)CC[C@H]1CN(S(=O)(=O)c2cccc(C(F)(F)F)c2)c2cc(/C=C3\CCOc4ccccc43)ccc2O1 [Example 38A, methyl (S,E)-3-(6-(chroman-4-ylidenemethyl)-4-((3-(trifluoromethyl)phenyl)sulfonyl)-3,4-dihydro-2H-benzo[b][1,4]oxazin-2-yl)propanoate] | > 6.30 | 5.30 to 6.30 | 
20 | C/C(=C\c1ccc2c(c1)N(S(=O)(=O)c1cn(C3CC3)nc1OCCO)C[C@H](CCC(=O)O)O2)c1c(F)cccc1Cl [Example 85, (S,E)-3-(6-(2-(2-Chloro-6-fluorophenyl)prop-1-en-1-yl)-4-((1-cyclopropyl-3-(2-hydroxyethoxy)-1H-pyrazol-4-yl)sulfonyl)-3,4-dihydro-2H-benzo[b][1,4]oxazin-2-yl)propanoic acid] | > 6.30 | > 6.30 | 
21 | CC1CCC/C(=C\c2ccc3c(c2)N(S(=O)(=O)c2cccc(C(F)(F)F)c2)C[C@H](CCC(=O)O)O3)C1 (stereo partly drawn) [Example 95G, 3-((2S)-6-((E)-(3-methylcyclo-hexylidene)methyl)-4-((3-(trifluoromethyl)phenyl)sulfonyl)-3,4-dihydro-2H-benzo[b][1,4]-oxazin-2-yl)propanoic acid] | > 6.30 | 5.30 to 6.30 | 
